Laboratory results: ChEMBL document CHEMBL1201862, “PubChem BioAssay data set” (2004)
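Each compound was tested at five concentrations against cells in 96-well plates for 48 hours. GI50 = concentration required for 50% inhibition of growth.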 Activity calls are given as the source filed them. Rule as the data show it: active = GI50 up to about 1.1 µM and inactive = higher.

Columns and labels:
Assay in all cases: NCI anticancer screen, dose series, 48 h
[1] = tested on: A498
[2] = tested on: SK-MEL-5
[3] = tested on: SK-MEL-2
[4] = tested on: SR
[5] = tested on: M14
[6] = tested on: OVCAR-4
[7] = tested on: RPMI-8226
[8] = tested on: A549
[9] = tested on: CCRF-CEM
[10] = tested on: SNB-75
[11] = tested on: HCT-116
[12] = tested on: SK-MEL-28
[13] = tested on: HCC 2998
[14] = tested on: CAKI-1
[15] = tested on: UO-31
[16] = tested on: MDA-MB-231
[17] = tested on: DU-145
[18] = tested on: NCI/ADR-RES
[19] = tested on: MDA-MB-435
[20] = tested on: MCF7

| SMILES | GI50 [1] | GI50 [2] | GI50 [3] | GI50 [4] | GI50 [5] | GI50 [6] | GI50 [7] | GI50 [8] | GI50 [9] | GI50 [10] | GI50 [11] | GI50 [12] | GI50 [13] | GI50 [14] | GI50 [15] | GI50 [16] | GI50 [17] | GI50 [18] | GI50 [19] | GI50 [20] |
| --- | --- | --- | --- | --- | --- | --- | --- | --- | --- | --- | --- | --- | --- | --- | --- | --- | --- | --- | --- | --- |
| CC(/C=C/c1ccccc1)=N\N=C(C)\C=C\c1ccccc1 | > 100 µM (inactive) | > 100 µM (inactive) | > 100 µM (inactive) | > 100 µM (inactive) | > 100 µM (inactive) | > 100 µM (inactive) | > 100 µM (inactive) | > 100 µM (inactive) | > 100 µM (inactive) | 42.2 µM (inactive) | > 100 µM (inactive) | > 100 µM (inactive) | > 100 µM (inactive) |  |  |  |  |  |  |  |
| CN(C)CCNC(=O)c1ccc2ccc3cccnc3c2n1 | 14.3 µM (inactive) | 13.9 µM (inactive) | 15.2 µM (inactive) | 4.24 µM (inactive) | 16.4 µM (inactive) | 14.5 µM (inactive) |  | 12.1 µM (inactive) | 18.9 µM (inactive) | 16 µM (inactive) | 4.02 µM (inactive) | 27.9 µM (inactive) | 10.5 µM (inactive) | 13.1 µM (inactive) | 12.2 µM (inactive) |  |  |  |  |  |
| [C-]#[N+]C(C)(C)C[C@H]1CC(C)C2CCC(C)C3([N+]#[C-])CCC(=C)C1[C@H]23 (some centres not stated) | 7.96 µM (inactive) | 2.67 µM (inactive) | 0.753 µM (active) | 0.418 µM (active) | 1.95 µM (inactive) | 0.234 µM (active) |  | 1.58 µM (inactive) | 2.37 µM (inactive) | 8.32 µM (inactive) | 0.184 µM (active) | 11.3 µM (inactive) | 5.83 µM (inactive) | 3.19 µM (inactive) | 0.251 µM (active) |  |  |  |  |  |
| N#CC1=C(N2CCCC2)NC(=O)CC1=O | > 100 µM (inactive) | > 100 µM (inactive) | > 100 µM (inactive) | > 100 µM (inactive) | > 100 µM (inactive) | > 100 µM (inactive) | > 100 µM (inactive) | > 100 µM (inactive) | > 100 µM (inactive) |  | > 100 µM (inactive) | > 100 µM (inactive) | > 100 µM (inactive) | > 100 µM (inactive) | > 100 µM (inactive) | > 100 µM (inactive) | > 100 µM (inactive) | > 100 µM (inactive) | > 100 µM (inactive) |  |
| O=S(=O)(Cc1ccccc1)SCc1ccccc1 | 25.3 µM (inactive) | 21.4 µM (inactive) | 30.4 µM (inactive) | 10.9 µM (inactive) | 14.3 µM (inactive) | 21.2 µM (inactive) | 13.3 µM (inactive) | 30.8 µM (inactive) | 3.24 µM (inactive) | 33.9 µM (inactive) | 10.1 µM (inactive) | 34.1 µM (inactive) | 17.8 µM (inactive) | > 50.9 µM (inactive) | 61.4 µM (inactive) |  |  |  |  |  |
| COP(=O)(CC(=O)C1OC(C)(C)OC1C(O)COCc1ccccc1)OC (configuration not stated) | > 100 µM (inactive) | 46.2 µM (inactive) | > 100 µM (inactive) | > 100 µM (inactive) | > 100 µM (inactive) | > 100 µM (inactive) | > 100 µM (inactive) | > 100 µM (inactive) | > 100 µM (inactive) | > 100 µM (inactive) | > 100 µM (inactive) | > 100 µM (inactive) | > 100 µM (inactive) | > 100 µM (inactive) | > 100 µM (inactive) |  |  |  |  |  |
| Cc1ccc(NC(=O)C(=O)Cc2cc[n+]([O-])cc2)cc1 | > 100 µM (inactive) | > 100 µM (inactive) | > 100 µM (inactive) | > 100 µM (inactive) | > 100 µM (inactive) | > 100 µM (inactive) | > 100 µM (inactive) | > 100 µM (inactive) | > 100 µM (inactive) | > 100 µM (inactive) | > 100 µM (inactive) | > 100 µM (inactive) | > 100 µM (inactive) | > 100 µM (inactive) | > 100 µM (inactive) |  |  |  |  |  |
| COc1cc(OC)c(OC)cc1/C=C/c1cc[n+](C)c2ccccc12 | > 100 µM (inactive) | 11 µM (inactive) |  | 17.8 µM (inactive) | 60.8 µM (inactive) | 46.9 µM (inactive) | 21.2 µM (inactive) | 25.9 µM (inactive) | 14.8 µM (inactive) | 47.4 µM (inactive) | 27.8 µM (inactive) | > 100 µM (inactive) | 52.6 µM (inactive) | > 100 µM (inactive) | > 100 µM (inactive) |  | 86.9 µM (inactive) | > 100 µM (inactive) |  | 49.2 µM (inactive) |
| O=S(=O)(c1ccccc1)n1c2ccc(Br)cc2c2nc3ccccc3nc21 | > 100 µM (inactive) | > 100 µM (inactive) | > 100 µM (inactive) | > 100 µM (inactive) | > 100 µM (inactive) | > 100 µM (inactive) | > 100 µM (inactive) | > 100 µM (inactive) | > 100 µM (inactive) | > 100 µM (inactive) | > 100 µM (inactive) | > 100 µM (inactive) | > 100 µM (inactive) | > 100 µM (inactive) | > 100 µM (inactive) | > 100 µM (inactive) | > 100 µM (inactive) | > 100 µM (inactive) | > 100 µM (inactive) |  |
| C/C=C/[C@H]1O[C@@](OC)([C@@H](C)[C@H](O)[C@H](C)[C@H]2OC(=O)/C(OC)=C/C(C)=C/[C@@H](C)[C@@H](O)[C@@H](C)[C@@H](O)[C@H](C)C/C(C)=C/C=C/[C@@H]2OC)CC(OC2CC(O)C(OC(N)=O)C(C)O2)[C@@H]1C (some centres not stated) | 8.99 µM (inactive) | < 0.01 µM (active) | < 0.01 µM (active) | < 0.01 µM (active) | < 0.01 µM (active) |  | < 0.01 µM (active) | < 0.01 µM (active) | < 0.01 µM (active) |  | < 0.01 µM (active) |  | < 0.01 µM (active) | < 0.01 µM (active) | < 0.01 µM (active) | < 0.01 µM (active) |  | 0.0953 µM (active) | < 0.01 µM (active) | < 0.01 µM (active) |
| COc1ccc(C#CCC(OC2OC(CO)C(O)C(O)C2O)C(O)c2ccc(OC)c(OC)c2)cc1OC (configuration not stated) | > 100 µM (inactive) | > 100 µM (inactive) | > 100 µM (inactive) | > 100 µM (inactive) | > 100 µM (inactive) | > 100 µM (inactive) | > 100 µM (inactive) | > 100 µM (inactive) | 36.6 µM (inactive) | > 100 µM (inactive) | > 100 µM (inactive) | > 100 µM (inactive) | > 100 µM (inactive) | > 100 µM (inactive) | > 100 µM (inactive) |  |  |  |  |  |
| CCN(CC)CC[n+]1ccc2c(C)c3[nH]c4ccccc4c3c(C)c2c1 | 3.04 µM (inactive) | 0.401 µM (active) | 0.428 µM (active) | 0.608 µM (active) | 0.923 µM (active) |  | 0.367 µM (active) |  | 0.204 µM (active) | 0.276 µM (active) |  | 0.533 µM (active) | 0.468 µM (active) | 1.99 µM (inactive) |  | 0.65 µM (active) | 0.422 µM (active) |  | 0.635 µM (active) | 0.522 µM (active) |
| CCOC(=O)C(NC(=O)OC(C)(C)C)C(=O)OCC |  | 64.1 µM (inactive) | > 100 µM (inactive) | > 100 µM (inactive) |  | > 100 µM (inactive) | > 100 µM (inactive) | > 100 µM (inactive) | > 100 µM (inactive) | > 100 µM (inactive) | > 100 µM (inactive) | > 100 µM (inactive) | > 100 µM (inactive) | > 100 µM (inactive) | > 100 µM (inactive) |  | > 100 µM (inactive) | > 100 µM (inactive) | > 100 µM (inactive) | > 100 µM (inactive) |
| COc1cc2c(c(OC)c1OC)-c1ccc(SC)c(=O)cc1C(CC(=O)Oc1cccc([N+](=O)[O-])c1)C2 (configuration not stated) | 0.0277 µM (active) | 0.592 µM (active) | 0.713 µM (active) | 0.459 µM (active) | 0.412 µM (active) | 5.66 µM (inactive) | 0.647 µM (active) | 1.16 µM (inactive) | 0.745 µM (active) | 0.268 µM (active) | 0.384 µM (active) | 0.546 µM (active) | 0.161 µM (active) | 0.685 µM (active) | 2.76 µM (inactive) |  |  |  |  |  |
| COc1ccc(C2c3cc4c(cc3OC(N3CCOCC3)C2C)OCO4)c(OC)c1OC (configuration not stated) |  | 10.1 µM (inactive) | 12.2 µM (inactive) | 9.06 µM (inactive) | 8.22 µM (inactive) |  | 13.2 µM (inactive) | 22.9 µM (inactive) | 13 µM (inactive) |  | 10.3 µM (inactive) | 14.2 µM (inactive) | 10.8 µM (inactive) | 2.51 µM (inactive) | 6.81 µM (inactive) |  | > 10 µM (inactive) | 12.1 µM (inactive) | 2.51 µM (inactive) | 10.9 µM (inactive) |
| Cc1nc(Nc2ccc(Cl)c(Cl)c2)sc1C(=O)/C=C/c1ccc2c(c1)OCO2 | 23.3 µM (inactive) | 33.4 µM (inactive) |  |  |  | 17.8 µM (inactive) | 17.1 µM (inactive) | 22.3 µM (inactive) | 31.8 µM (inactive) | 14.4 µM (inactive) | 20.6 µM (inactive) | 31.7 µM (inactive) | 30.2 µM (inactive) | 16.5 µM (inactive) | 16.9 µM (inactive) |  | > 10 µM (inactive) | 34.4 µM (inactive) | 20.5 µM (inactive) | 25.1 µM (inactive) |
| CN(CCN(C)C(=S)NN)C(=S)NN |  | > 100 µM (inactive) | > 100 µM (inactive) | > 100 µM (inactive) | > 100 µM (inactive) | > 100 µM (inactive) | > 100 µM (inactive) | > 100 µM (inactive) | > 100 µM (inactive) | > 100 µM (inactive) | > 100 µM (inactive) | > 100 µM (inactive) | > 100 µM (inactive) | > 100 µM (inactive) | > 100 µM (inactive) | > 100 µM (inactive) | > 100 µM (inactive) |  | > 100 µM (inactive) |  |
